Consider one substance from EP1363949B1, “FUNCTIONAL FRAGMENT OF THE LEPTINE RECEPTOR” (Vlaams Interuniversitair Instituut voor Biotechnologie vzw., priority 2000, dated 2007).

This assay relates to FLAG-tagged SOCS3. Description: phosphopeptide affinity chromatography with anti-FLAG Western blot. The format is binding, rat. The note with it: lysates of HEK293T cells transfected with pMET7-fSOCS3, biotinylated peptides on streptavidin-agarose. The source says:
Monoclonal anti-FLAG antibody M2 was obtained from Sigma. Mouse recombinant leptin was purchased from R&D Systems. Peptides were synthesized using standard Fmoc-amino-acid solid phase chemistry on an Applied Biosystems Model 431A peptide synthesizer. Biotin was esterified manually following similar procedures as on the synthesizer, and added to the reaction mixture. Incorporation of phosphotyrosine was realized by using a protected Fmoc-tyrosine-phosphobenzylester (Novabiochem). After purification, mass of the peptides was confirmed by mass spectrometry. Sequences of the peptides used were biotin-QRQPSVK(p)Y985ATLVSNDK and biotin-NHREKSVC(p)Y1077LGVTSVNR.
Approximately 10^6 HEK293T cells were lysed in 150 µl 2x loading buffer. After sonication, 30 µl was loaded on a 10% polyacrylamide gel. […] Blotting efficiency was checked using PonceauS staining (Sigma). […] Peptide concentrations were determined by a colorimetric assay using alkaline hydrolysis and a ninhydrine reagent. […]
The interaction sites of SOCS3 with the leptin receptor were confirmed using a biochemical approach. FLAG-tagged SOCS3 was expressed upon transient transfection of pMET7-fSOCS3 in HEK293T cells, and was analyzed for binding to (phospho)-tyrosine containing peptides matching the two motifs within the leptin receptor. […]
A general note: A western blot detects proteins with antibodies after separation by electrophoresis.

For “biotin-QRQPSVK(p)Y985ATLVSNDK [non-phosphorylated peptide]”, the “binding of SOCS3” value was “did not bind any SOCS3 protein”.
